Assay results taken from US12286437B2, “Cardiac sarcomere inhibitors” (Cytokinetics, Inc., priority 2021, dated 2025).

Test: Monkey single dose pharmacokinetics
Format: in vivo
Conditions: male, plasma, cynomolgus monkey, IV; for Vd: read-out: Vss; for half-life: read-out: t½ (converted)
Description: Non-naïve Male Cynomolgus Monkey (2-5 years of age, body weight 2-5 kg) used in this study were obtained from Topgene Biotechnology. All animals for IV administration had free access to food and water; all animals for PO were fasted overnight prior to dosing and were fed approximately 6 hours after dosing. The IV dose solution was prepared in 10% DMA/[…] solution (40% w/v aqueous HPβCD) at a concentration of 1.0 mg/mL. The oral dose suspension was prepared by suspending the compound in 0.5% HPMC/0.1% Tween 80 in distilled water at a concentration of 0.2 mg/mL. Concentrations of IV and PO doses were measured at the end of the study. PK parameters were calculated using the nominal dose values if the measured values were within 20% of the nominal values. Blood samples were collected by venipuncture of peripheral veins except the dosing vein at pre-dose, 5 15, 30 min, 1, 2, 4, 6, 8, 24 and 48 h post-dose. Blood samples were centrifuged and resultant plasma was frozen for bioanalysis. Plasma samples were stored at −80° C. before analysis. Plasma samples were analyzed for compound concentrations using the LC/MS/MS method. Briefly, a 50 μL aliquot of each plasma sample was mixed with 100 μL of acetonitrile that contained an internal standard. The mixture was vortexed and centrifuged. Ten (10) μL of the resulting solution was injected onto a reverse-phase C18 column and the resultant peaks detected on a LC/MS/MS equipped with a turbo ionspray ionization source. Sample concentrations below the limit of quantification (BLQ) were treated as zero for PK calculations. PK parameters were estimated from individual animals using noncompartmental analysis of the concentration-time data (Phoenix WinNonLin software, version 64; Pharsight, Mountain View, CA). The elimination rate constant (k) was calculated as the absolute value of the slope of the linear regression of logarithm (log) of the concentration versus time for the last three data points of the concentration-time profiles. Apparent elimination half-life (t1/2) values were calculated as ln(2)/k. Area under the concentration-time curve (AUC) values were estimated using linear trapezoidal method. AUCt values were calculated from the dosing time to the last measurable concentration. AUC∞ values were calculated as the sum of the corresponding AUCt and the ratio of the last detectable concentration divided by k. Plasma clearance (CL) was calculated from Dose/AUC∞. Mean resident time extrapolated to infinity (MRT∞) was estimated by moment analysis. Vss was calculated from MRT∞×CL. Maximum concentration (Cmax) and time to reach Cmax (tmax) were recorded as observed. As this was a cross-over study, bioavailability was calculated dAUC∞,po/dAUC∞,iv×100% where dAUC was the dose normalized AUC value from the same animal given IV and PO dose. Data for compounds tested are provided in Table E. Compounds tested were prepared in accordance with the synthetic procedures described herein.

Row | clearance | Vd | half-life | SMILES
1 | 25.8 mL/min/kg | 3.98 L/kg | 123 min | CC(C)N1CC(=O)N(Cc2ccc(C(F)(F)F)cc2)C2(CN(c3cccnn3)C2)C1=O [Compound 13, 8-isopropyl-2-(pyridazin-3-yl)-5-(4-(trifluoromethyl)benzyl)-2,5,8-triazaspiro[3.5]nonane-6,9-dione]
2 | 7.91 mL/min/kg | 6.08 L/kg | 654 min | C[C@H]1CC[C@H](N2CC(=O)N(Cc3ccc(Cl)cc3)C3(CN(C(N)=O)C3)C2=O)CC1 [Compound 18, 5-(4-chlorobenzyl)-8-((1r,4r)-4-methylcyclohexyl)-6,9-dioxo-2,5,8-triazaspiro[3.5]nonane-2-carboxamide]
